Data published in patent US20110166206A1, “UBIQUILIN REGULATION OF PRESENILIN ENDOPROTEOLYSIS, AND SUPPRESSION OF POLYGLUTAMINE-INDUCED TOXICITY IN CELLS” (UNIVERSITY OF MARYLAND BIOTECHNOLOGY INSTITUTE, priority 2005, published 2011).
Square brackets hold non-standard residues; d marks the D form. Peptide text beside a SMILES is read from it. * marks the point of attachment. Nle = CCCC[C@H](N)C(=O)O; Cbz = O=C(OCc1ccccc1)*

Legend:
PS1 NTF = assay: Proteasome inhibitor treatment of PS1 inducible cells, PS1 NTF immunoblot; format: cell-based; settings: 16 h treatment
Experimental: (§1) (A) PS1 and PS2 inducible cells were treated with various classes of proteasome inhibitors for 16 hours. Afterwards, cell lysates were collected, separated by SDS-PAGE, and analyzed by immunoblotting. PS1 NTF levels and PS2 NTF levels were reduced by treatment with all of the different inhibitors albeit to varying extents.
(§2) PS2 inducible cells were treated for 16 h with 10 uM clasto-lactacystin β-lactone, N-Acetyl-Leu-Leu-Nle-CHO (ALLN), 50 uM epoxomicin, 40 uM MG132, and […]. Afterwards, lysates were collected and the fragment levels were analyzed by SDS-PAGE and immunoblotting.
(§3) First, to rule out that MG132 inhibits another factor involved in PS cleavage, PS1 and PS2 inducible cells were treated with a series of different known proteasome inhibitors including clasto-lactacystin p-lactone, ALLN, epoxomicin, MG132, and MG262. […] While each inhibitor had varying effects on the extent of reduction, PS1 NTF levels were reduced by an average of 1.3-fold and PS2 NTF levels were reduced by an average of 1.4-fold. At first glance the fold reduction appears modest; however, considering that degradation of the PS fragments by the proteasome has also been blocked and that fragment levels are tightly regulated, the reduction in PS fragment levels appears significant. Furthermore, it was considered unlikely that all […] proteasome inhibitors used here caused nonspecific inhibition of an unknown factor involved in PS endoproteolysis. Instead, it was considered that the most straightforward interpretation of the results is that, in accord with the mode of action the drugs, they all inhibit the proteasome, which is involved in PS endoproteolysis.

PS2 NTF [1] = assay: Proteasome inhibitor treatment of PS2 inducible cells, PS2 NTF immunoblot; format: cell-based, human; settings: 16 h treatment
Experimental: as §1, §2, §3

PS1 and PS2 NTF and CTF = assay: MG132 treatment of UBQLN-transfected PS1 and PS2 stable cell lines, fragment immunoblot; format: cell-based; settings: proteasome inhibitor treatment
Experimental: FIG. 3. […] (A) PS1 cells lines that were either not induced (lanes 1 and 3) or induced with PonA (lanes 2 and 4) and either left untransfected (lanes 1 and 2) or transfected with UBQLN1 expression plasmids (lanes 3 and 4) were treated for 7 h with MG132 after which protein lysates were collected and analyzed by immunoblotting. […] For clarification, if UBQLN did increase the turnover rate then by blocking degradation, turnover would be stopped and PS fragment levels would be similar, or increase, relative to that of untransfected cells. […] Densitometric analysis was used to quantify the extent of reduction. Each experiment was repeated more than three times and similar trends were observed.
(B) Same experiment and results as described in (A) except that PS2 inducible cell lines were used to examine PS2 NTF and CTF levels. […] UBQLN exerts greater effects on PS2 probably because it interacts more strongly with PS2, see [43].
HeLa and HEK293 cells were grown in DMEM supplemented with 10% FBS. PS1 and S2 inducible cell lines were generated by transfection of the pERV-expressing HEK293 cell line (Stratgene, IaIolla, Calif.) with FL human PS2 cDNA under the control of ponasteroneA (PonA)-inducible cassette in plasmid pEGSH (Stratagene). Stable integration of the pEGSH plasmid was achieved by selection for hygromycin resistance. […]

PS2 NTF [2] = assay: Proteasome inhibitor wash-out time course with CHX in PS2 stable cells; format: cell-based, human
Experimental: (B) PS2 inducible cells were treated continuously with MG132 or MG262 or the drugs were washed from half the cultures after 7 hours of incubation with the drugs. Immediately after washing, CHX was added to all of the cultures to inhibit protein synthesis. Lysates were collected at two hour time points thereafter and the PS fragment levels were analyzed by SDS-PAGE and subsequent immunoblotting. […] Please note that because PS2 expression was not been induced with PonA, the FL protein is not detectable. The filter was reprobed with anti-p27 antibody to monitor recovery of proteasome activity. p27 has a half-life of two hours; therefore once proteasome inhibition is relieved the level of p27 begins to decline (third panel, right), whereas under constant proteasome inhibition its levels remain steady (third panel, left), serving as an important control.
(C) Densitometric analysis was used to quantify the extent of increase in PS2 NTF levels in conditions of constant proteasome inhibition and upon removal of proteasome inhibition. At time=0 the NTF levels in the washed sample is equal to that of MG132 treated sample; however, NTF levels quickly begin to […], whereas in the MG132 treated samples PS2 NTF levels stay steady.
PS2 inducible cells were grown in two sets on […]. Both sets were treated with MG132 or MG262 (also called Z-Leu-Leu-Leu-B(OH)2, Boston Biocem). 7 h later, the drugs were washed off one set by rinsing twice with warm 1×PBS and replacing with fresh DMEM supplemented with 10% FBS, allowing the proteasomes to recover. Also at that point, cyclohexamide (final cont. […]) was added to all dishes. Lysates were collected at two hour time points and the fragment levels were analyzed by SDS-PAGE and subsequent immunoblotting.
To directly address whether the proteasome is responsible for endoproteolysis of PS2, another time course experiment utilizing proteasome inhibitors was devised. […]

endogenous PS1 NTF = assay: UBQLN overexpression in wild-type HEK293 cells, endogenous PS1 NTF immunoblot; format: cell-based; settings: normal HEK293 cells
Experimental: (C) Endogenous PS fragment levels were analyzed in HEK293 cells that were transfected with increasing amounts of UBQLN1 or UBQLN2 expression plasmids. Equivalent amounts of protein lysates were separated by 10% SDS-PAGE and immunoblotted with anti-PS1 NTF antibody. The filter was then reprobed with anti-ubiquilin antibody to ensure overexpression of UBQLN and with an anti-actin antibody to ensure equal protein loading. Overexpression of UBQLN decreases PS1 NTF levels and the extent of reduction was quantified again by densitometric analysis. Graph is quantification of untransfected and […] UBQLN cDNA plasmid transfected lanes.
Preparation of protein lysates, SDS-PAGE and immunoblotting of proteins were described previously. Primary antibodies used were rabbit anti-PS2 loop and rabbit anti-PS2 NH,-terminus, both raised to GST-PS2 fusion proteins; rabbit anti-ubiquilin [43] which reacts with UBQLN1 and UBQLN2 polypeptides; rat anti-PS1 NH2,-terminus (Chemicon International, Temecula, Calif.); rabbit anti-PS1 loop raised to GST-PS1 fusion proteins; goat anti-p27 and goat anti-actin (Santa Cruz Biotechnology, Santa Cruz, Calif.); mouse monoclonal anti-tubulin (Sigma-Aldrich, St. Louis, Mo.); rabbit anti-nicastrin (Abeam, Cambridge, Mass.), rabbit anti-Pen-2 (Zymed, San Francisco, Calif.); and rabbit anti-Aph-la (Covance, Berkeley, Calif.). […]

| Compound | PS1 NTF levels (PS1 NTF) | PS2 NTF levels (PS2 NTF [1]) | PS fragment levels, MG132 treated vs MG132 untreated cells (PS1 and PS2 NTF and CTF) | rise in PS2 NTF levels after inhibitor washed out (PS2 NTF [2]; 12 hours after wash-out, CHX added) | PS2 NTF levels under continuous inhibitor (PS2 NTF [2]; inhibitor present for the continuous duration) | PS2 fragments after removal of inhibitor (PS2 NTF [2]; proteasomes recover activity) | reduction of endogenous PS1 NTF levels (endogenous PS1 NTF) |
| --- | --- | --- | --- | --- | --- | --- | --- |
| CCCC[C@@H](C=O)NC(=O)[C@H](CC(C)C)NC(=O)[C@H](CC(C)C)NC(C)=O [ALLN, N-Acetyl-Leu-Leu-Nle-CHO] (Ac-Leu-Leu-[Nle]-aldehyde) | reduced | reduced |  |  |  |  |  |
| CC(C)C[C@@H](C=O)NC(=O)[C@H](CC(C)C)NC(=O)[C@H](CC(C)C)NC(=O)OCc1ccccc1 [MG132] (Cbz-Leu-Leu-Leu-aldehyde) | reduced | reduced | reduced PS fragment levels | 1.8 fold | remained relatively constant |  |  |
| CC(C)C[C@H](NC(=O)[C@H](CC(C)C)NC(=O)[C@H](CC(C)C)NC(=O)OCc1ccccc1)B(O)O [MG262, Z-Leu-Leu-Leu-B(OH)2] | reduced | reduced |  |  |  | notable increase in PS2 fragments |  |
| CC(C)[C@H](O)[C@@]12NC(=O)[C@H](C)[C@@H]1OC2=O [clasto-lactacystin p-lactone, clasto-lactacystin β-lactone] | reduced | reduced |  |  |  |  |  |
| CC[C@H](C)[C@H](NC(=O)[C@H]([C@@H](C)CC)N(C)C(C)=O)C(=O)N[C@H](C(=O)N[C@@H](CC(C)C)C(=O)[C@@]1(C)CO1)[C@@H](C)O [epoxomicin] | reduced | reduced |  |  |  |  |  |
| UBQLN2: ubiquilin-2, 72% identical to UBQLN1, overexpressed from an expression plasmid |  |  |  |  |  |  | approximately 1.7 fold |
